Reference: PubChem BioAssay (NCI)
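How tested: cells in 96-well plates exposed to compound for 48 hours at five concentrations. Here, GI50 denotes the concentration required for 50% inhibition of growth. TGI marks complete inhibition of growth.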

Columns and labels:
Experiment in all cases: DTP human tumour cell line panel, 48 h
LOX IMVI melanoma = tested on: LOX IMVI melanoma
HL-60(TB) leukemia = tested on: HL-60(TB) leukemia
CCRF-CEM leukemia = tested on: CCRF-CEM leukemia
SF-295 CNS = tested on: SF-295 CNS
OVCAR-5 ovarian = tested on: OVCAR-5 ovarian
SN12C renal = tested on: SN12C renal
IGROV1 ovarian = tested on: IGROV1 ovarian
U251 CNS = tested on: U251 CNS
HCT-116 colon = tested on: HCT-116 colon
EKVX NSCLC = tested on: EKVX NSCLC
COLO 205 colon = tested on: COLO 205 colon
TK-10 renal = tested on: TK-10 renal
NCI-H23 lung = tested on: NCI-H23 lung
T-47D breast = tested on: T-47D breast
NCI/ADR-RES ovarian = tested on: NCI/ADR-RES ovarian
NCI-H226 lung = tested on: NCI-H226 lung
DU-145 prostate = tested on: DU-145 prostate
HT29 colon = tested on: HT29 colon
NCI-H460 lung = tested on: NCI-H460 lung
SF-268 CNS = tested on: SF-268 CNS
UO-31 renal = tested on: UO-31 renal
SK-OV-3 ovarian = tested on: SK-OV-3 ovarian
ACHN renal = tested on: ACHN renal
OVCAR-4 ovarian = tested on: OVCAR-4 ovarian
SK-MEL-5 melanoma = tested on: SK-MEL-5 melanoma
MCF7 breast = tested on: MCF7 breast
SW-620 colon = tested on: SW-620 colon
A498 renal = tested on: A498 renal
786-0 renal = tested on: 786-0 renal
K-562 leukemia = tested on: K-562 leukemia
OVCAR-3 ovarian = tested on: OVCAR-3 ovarian
SK-MEL-28 melanoma = tested on: SK-MEL-28 melanoma
HCC-2998 colon = tested on: HCC-2998 colon
MDA-MB-231 breast = tested on: MDA-MB-231 breast
RPMI-8226 leukemia = tested on: RPMI-8226 leukemia
SK-MEL-2 melanoma = tested on: SK-MEL-2 melanoma
SNB-75 CNS = tested on: SNB-75 CNS
HOP-92 NSCLC = tested on: HOP-92 NSCLC
MOLT-4 leukemia = tested on: MOLT-4 leukemia
PC-3 prostate = tested on: PC-3 prostate
MALME-3M melanoma = tested on: MALME-3M melanoma
MDA-MB-435 = tested on: MDA-MB-435
RXF 393 renal = tested on: RXF 393 renal
SR leukemia = tested on: SR leukemia
KM12 colon = tested on: KM12 colon
SF-539 CNS = tested on: SF-539 CNS
HS 578T breast = tested on: HS 578T breast
UACC-257 melanoma = tested on: UACC-257 melanoma
BT-549 breast = tested on: BT-549 breast
HCT-15 colon = tested on: HCT-15 colon

COc1ccc(/C=C/C(=O)C(CC2CCC2)C(=O)/C=C/c2ccc(OC)c(OC)c2)cc1OC
GI50 (LOX IMVI melanoma): 1250 nM
TGI (LOX IMVI melanoma): 2520 nM
GI50 (HL-60(TB) leukemia): 1690 nM
TGI (HL-60(TB) leukemia): 5940 nM
GI50 (CCRF-CEM leukemia): 2050 nM
TGI (CCRF-CEM leukemia): > 100000 nM
GI50 (SF-295 CNS): 2500 nM
TGI (SF-295 CNS): 7220 nM
GI50 (OVCAR-5 ovarian): 2550 nM
TGI (OVCAR-5 ovarian): 5600 nM
GI50 (SN12C renal): 1930 nM
TGI (SN12C renal): 4550 nM
GI50 (IGROV1 ovarian): 2000 nM
TGI (IGROV1 ovarian): 5270 nM
GI50 (U251 CNS): 1380 nM
TGI (U251 CNS): 2790 nM
GI50 (HCT-116 colon): 965 nM
TGI (HCT-116 colon): 2420 nM
GI50 (EKVX NSCLC): 2730 nM
TGI (EKVX NSCLC): 9900 nM
GI50 (COLO 205 colon): 2410 nM
TGI (COLO 205 colon): 5000 nM
GI50 (TK-10 renal): 2590 nM
TGI (TK-10 renal): 4880 nM
GI50 (NCI-H23 lung): 2190 nM
TGI (NCI-H23 lung): 5870 nM
GI50 (T-47D breast): 1390 nM
TGI (T-47D breast): 4440 nM
GI50 (NCI/ADR-RES ovarian): 2580 nM
TGI (NCI/ADR-RES ovarian): > 100000 nM
GI50 (NCI-H226 lung): 2680 nM
TGI (NCI-H226 lung): 6740 nM
GI50 (DU-145 prostate): 1710 nM
TGI (DU-145 prostate): 3560 nM
GI50 (HT29 colon): 1780 nM
TGI (HT29 colon): 4340 nM
GI50 (NCI-H460 lung): 2010 nM
TGI (NCI-H460 lung): 4140 nM
GI50 (SF-268 CNS): 2580 nM
TGI (SF-268 CNS): 9510 nM
GI50 (UO-31 renal): 1560 nM
TGI (UO-31 renal): 2900 nM
GI50 (SK-OV-3 ovarian): 2690 nM
TGI (SK-OV-3 ovarian): 6690 nM
GI50 (ACHN renal): 1480 nM
TGI (ACHN renal): 2950 nM
GI50 (OVCAR-4 ovarian): 2340 nM
TGI (OVCAR-4 ovarian): > 100000 nM
GI50 (SK-MEL-5 melanoma): 1770 nM
TGI (SK-MEL-5 melanoma): 3250 nM
GI50 (MCF7 breast): 600 nM
TGI (MCF7 breast): 40500 nM
GI50 (SW-620 colon): 1550 nM
TGI (SW-620 colon): 3570 nM
GI50 (A498 renal): 1820 nM
TGI (A498 renal): 3330 nM
GI50 (786-0 renal): 1830 nM
TGI (786-0 renal): 3450 nM
GI50 (K-562 leukemia): 2150 nM
TGI (K-562 leukemia): > 100000 nM
GI50 (OVCAR-3 ovarian): 1040 nM
TGI (OVCAR-3 ovarian): 3040 nM
GI50 (SK-MEL-28 melanoma): 2160 nM
TGI (SK-MEL-28 melanoma): 5390 nM
GI50 (HCC-2998 colon): 1850 nM
TGI (HCC-2998 colon): 3410 nM
GI50 (MDA-MB-231 breast): 3770 nM
TGI (MDA-MB-231 breast): > 100000 nM
GI50 (RPMI-8226 leukemia): 1730 nM
TGI (RPMI-8226 leukemia): 6400 nM
GI50 (SK-MEL-2 melanoma): 2110 nM
TGI (SK-MEL-2 melanoma): 4700 nM
GI50 (SNB-75 CNS): 1320 nM
TGI (SNB-75 CNS): 2740 nM
GI50 (HOP-92 NSCLC): 2640 nM
TGI (HOP-92 NSCLC): 7900 nM
GI50 (MOLT-4 leukemia): 2820 nM
TGI (MOLT-4 leukemia): 8950 nM
GI50 (PC-3 prostate): 2850 nM
TGI (PC-3 prostate): > 100000 nM
GI50 (MALME-3M melanoma): 2090 nM
TGI (MALME-3M melanoma): 5040 nM
GI50 (MDA-MB-435): 1490 nM
TGI (MDA-MB-435): 3150 nM
GI50 (RXF 393 renal): 1850 nM
TGI (RXF 393 renal): 3470 nM
GI50 (SR leukemia): 1040 nM
TGI (SR leukemia): > 100000 nM
GI50 (KM12 colon): 2220 nM
TGI (KM12 colon): 6660 nM
GI50 (SF-539 CNS): 1710 nM
TGI (SF-539 CNS): 3570 nM
GI50 (HS 578T breast): 3190 nM
TGI (HS 578T breast): > 100000 nM
GI50 (UACC-257 melanoma): 1860 nM
TGI (UACC-257 melanoma): 3410 nM
GI50 (BT-549 breast): 1540 nM
TGI (BT-549 breast): 4040 nM
GI50 (HCT-15 colon): 1280 nM
TGI (HCT-15 colon): 3900 nM
